In patent publication US12077503B2, “Substituted cyclic amides and their use as herbicides” (FMC CORPORATION, priority 2015, dated 2024):

Key:
Assay type in all cases: in vivo
[1] = system: barnyardgrass (Echinochloa crus-galli); assay: Test G Pre-Emergence Protocol; details: Echinochloa crus-galli, pre-emergence, 312 h, evaluated after 13 days
Method in brief: (§1)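 One day after sowing, pots are treated with a spray of test compound formulated in acetone/water 50:50 plus 0.5% Tween 20, giving 15.625, 62.5 or 250 g/ha. Evaluation on a 0–100 damage scale follows 13 days of glasshouse growth.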

corn (Zea mays) [2] = assay: Test G Pre-Emergence Protocol; details: Zea mays, pre-emergence, 312 h, evaluated after 13 days
Method in brief: as §1

[3] = system: giant foxtail (Setaria faberi); assay: Test G Pre-Emergence Protocol; details: Setaria faberi, pre-emergence, 312 h, evaluated after 13 days
Method in brief: as §1

[4] = system: ivy-leaved morning glory (Ipomoea hederacea); assay: Test G Pre-Emergence Protocol; details: Ipomoea, pre-emergence, 312 h, evaluated after 13 days
Method in brief: as §1

[5] = system: redroot pigweed (Amaranthus retroflexus); assay: Test G Pre-Emergence Protocol; details: Amaranthus retroflexus, pre-emergence, 312 h, evaluated after 13 days
Method in brief: as §1

[6] = system: velvetleaf (Abutilon theophrasti); assay: Test G Pre-Emergence Protocol; details: Abutilon theophrasti, pre-emergence, 312 h, evaluated after 13 days
Method in brief: as §1

[7] = system: barnyardgrass (Echinochloa crus-galli); assay: Test G Post-Emergence Protocol; details: Echinochloa crus-galli, post-emergence, 312 h, read-out: Barnyardgrass damage rating
Method in brief: (§2)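 Foliar application was made 8 days after sowing, using an aqueous spray of the active in acetone/water (50:50) with 0.5% Tween 20, at doses of 15.625, 62.5 or 250 g/ha. Injury was assessed 13 days later, where 100 meant the plant was fully damaged.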

corn (Zea mays) [8] = assay: Test G Post-Emergence Protocol; details: Zea mays, post-emergence, 312 h, read-out: Corn damage rating
Method in brief: as §2

[9] = system: giant foxtail (Setaria faberi); assay: Test G Post-Emergence Protocol; details: Setaria faberi, post-emergence, 312 h, read-out: Foxtail, Giant damage rating
Method in brief: as §2

[10] = system: ivy-leaved morning glory (Ipomoea hederacea); assay: Test G Post-Emergence Protocol; details: Ipomoea, post-emergence, 312 h, read-out: Morningglory, Ivy-leaved damage rating
Method in brief: as §2

[11] = system: redroot pigweed (Amaranthus retroflexus); assay: Test G Post-Emergence Protocol; details: Amaranthus retroflexus, post-emergence, 312 h, read-out: Pigweed, Redroot damage rating
Method in brief: as §2

[12] = system: velvetleaf (Abutilon theophrasti); assay: Test G Post-Emergence Protocol; details: Abutilon theophrasti, post-emergence, 312 h, read-out: Velvetleaf damage rating
Method in brief: as §2

[13] = 15.625 g ai/ha, evaluated after 13 days (100=total damage to plant; 0=no damage to plant)
[14] = 62.5 g ai/ha, evaluated after 13 days, 100=total damage to plant, 0=no damage to plant
[15] = 250 g ai/ha, evaluated after 13 days, 100=total damage to plant, 0=no damage to plant

Molecule `CCCOc1cc(C2CN(C)C(=O)C2C(=O)Nc2cccc(F)c2F)cc(C(F)(F)F)c1` (stereo not drawn) [Compound 1725] has a pest or weed control at 15.625 g/ha ([1]; 15.625 g ai/ha, read-out: Barnyardgrass damage rating (100=total damage to plant; 0=no damage to plant)) of 20%, a pest or weed control at 62.5 g/ha ([1]; 62.5 g ai/ha, 100=total damage to plant, 0=no damage to plant, read-out: Barnyardgrass damage rating) of 50% and a pest or weed control at 250 g/ha ([1]; 250 g ai/ha, read-out: Barnyardgrass damage rating (100=total damage to plant; 0=no damage to plant)) of 70%. The plant injury at 15.625 g/ha (corn (Zea mays) [2]; 15.625 g ai/ha, read-out: Corn damage rating (100=total damage to plant; 0=no damage to plant)) was 0%, the plant injury at 62.5 g/ha (corn (Zea mays) [2]; 62.5 g ai/ha, 100=total damage to plant, 0=no damage to plant, read-out: Corn damage rating) was 0% and the plant injury at 250 g/ha (corn (Zea mays) [2]; 250 g ai/ha, read-out: Corn damage rating (100=total damage to plant; 0=no damage to plant)) was 30%. The pest or weed control at 15.625 g/ha ([3]; 15.625 g ai/ha, read-out: Foxtail, Giant damage rating (100=total damage to plant; 0=no damage to plant)) was 20%, the pest or weed control at 62.5 g/ha ([3]; 62.5 g ai/ha, 100=total damage to plant, 0=no damage to plant, read-out: Foxtail, Giant damage rating) was 50% and the pest or weed control at 250 g/ha ([3]; 250 g ai/ha, read-out: Foxtail, Giant damage rating (100=total damage to plant; 0=no damage to plant)) was 80%. The pest or weed control at 15.625 g/ha ([4]; 15.625 g ai/ha, read-out: Morningglory, Ivy-leaved damage rating (100=total damage to plant; 0=no damage to plant)) was 0%, the pest or weed control at 62.5 g/ha ([4]; 62.5 g ai/ha, 100=total damage to plant, 0=no damage to plant, read-out: Morningglory, Ivy-leaved damage rating) was 0% and the pest or weed control at 250 g/ha ([4]; 250 g ai/ha, read-out: Morningglory, Ivy-leaved damage rating (100=total damage to plant; 0=no damage to plant)) was 0%. For the same molecule, the pest or weed control at 15.625 g/ha ([5]; 15.625 g ai/ha, read-out: Pigweed, Redroot damage rating (100=total damage to plant; 0=no damage to plant)) was 0%, the pest or weed control at 62.5 g/ha ([5]; 62.5 g ai/ha, 100=total damage to plant, 0=no damage to plant, read-out: Pigweed, Redroot damage rating) was 0% and the pest or weed control at 250 g/ha ([5]; 250 g ai/ha, read-out: Pigweed, Redroot damage rating (100=total damage to plant; 0=no damage to plant)) was 20%. It also gave a pest or weed control at 15.625 g/ha ([6]; 15.625 g ai/ha, read-out: Velvetleaf damage rating (100=total damage to plant; 0=no damage to plant)) of 0%, a pest or weed control at 62.5 g/ha ([6]; 62.5 g ai/ha, 100=total damage to plant, 0=no damage to plant, read-out: Velvetleaf damage rating) of 0% and a pest or weed control at 250 g/ha ([6]; 250 g ai/ha, read-out: Velvetleaf damage rating (100=total damage to plant; 0=no damage to plant)) of 0%. For the same molecule, the pest or weed control at 15.625 g/ha [7, 13] was 0%, the pest or weed control at 62.5 g/ha [7, 14] was 30% and the pest or weed control at 250 g/ha [7, 15] was 70%. The plant injury at 15.625 g/ha (corn (Zea mays) [8]; [13]) was 10%, the plant injury at 62.5 g/ha (corn (Zea mays) [8]; [14]) was 0% and the plant injury at 250 g/ha (corn (Zea mays) [8]; [15]) was 70%. For the same molecule, the pest or weed control at 15.625 g/ha [9, 13] was 0%, the pest or weed control at 62.5 g/ha [9, 14] was 70% and the pest or weed control at 250 g/ha [9, 15] was 80%. The pest or weed control at 15.625 g/ha [10, 13] was 30%, the pest or weed control at 62.5 g/ha [10, 14] was 70% and the pest or weed control at 250 g/ha [10, 15] was 70%. For the same molecule, the pest or weed control at 15.625 g/ha [11, 13] was 0%, the pest or weed control at 62.5 g/ha [11, 14] was 10% and the pest or weed control at 250 g/ha [11, 15] was 60%. The pest or weed control at 15.625 g/ha [12, 13] was 0%, the pest or weed control at 62.5 g/ha [12, 14] was 0% and the pest or weed control at 250 g/ha [12, 15] was 10%.
